Measured values as given in patent US20190192618A1 (priority 2016, published 2019).
Where two headings read alike, the source gives them in different places. Bridge positions count the residues as written; N and C are the ends. Square brackets hold non-standard residues; d marks the D form. Peptide text beside a SMILES is read from it. Dab = NCC[C@H](N)C(=O)O

Tests used:
hERG potassium channel = molecular target: T1, hERG potassium channel (Homo sapiens, UniProt Q12809); test: hERG current inhibition, single cell patch clamp in HEK293 cells; assay type: cell-based
T1 construct: expressed in transfected cells
T1 sequence (Q12809 whole entry): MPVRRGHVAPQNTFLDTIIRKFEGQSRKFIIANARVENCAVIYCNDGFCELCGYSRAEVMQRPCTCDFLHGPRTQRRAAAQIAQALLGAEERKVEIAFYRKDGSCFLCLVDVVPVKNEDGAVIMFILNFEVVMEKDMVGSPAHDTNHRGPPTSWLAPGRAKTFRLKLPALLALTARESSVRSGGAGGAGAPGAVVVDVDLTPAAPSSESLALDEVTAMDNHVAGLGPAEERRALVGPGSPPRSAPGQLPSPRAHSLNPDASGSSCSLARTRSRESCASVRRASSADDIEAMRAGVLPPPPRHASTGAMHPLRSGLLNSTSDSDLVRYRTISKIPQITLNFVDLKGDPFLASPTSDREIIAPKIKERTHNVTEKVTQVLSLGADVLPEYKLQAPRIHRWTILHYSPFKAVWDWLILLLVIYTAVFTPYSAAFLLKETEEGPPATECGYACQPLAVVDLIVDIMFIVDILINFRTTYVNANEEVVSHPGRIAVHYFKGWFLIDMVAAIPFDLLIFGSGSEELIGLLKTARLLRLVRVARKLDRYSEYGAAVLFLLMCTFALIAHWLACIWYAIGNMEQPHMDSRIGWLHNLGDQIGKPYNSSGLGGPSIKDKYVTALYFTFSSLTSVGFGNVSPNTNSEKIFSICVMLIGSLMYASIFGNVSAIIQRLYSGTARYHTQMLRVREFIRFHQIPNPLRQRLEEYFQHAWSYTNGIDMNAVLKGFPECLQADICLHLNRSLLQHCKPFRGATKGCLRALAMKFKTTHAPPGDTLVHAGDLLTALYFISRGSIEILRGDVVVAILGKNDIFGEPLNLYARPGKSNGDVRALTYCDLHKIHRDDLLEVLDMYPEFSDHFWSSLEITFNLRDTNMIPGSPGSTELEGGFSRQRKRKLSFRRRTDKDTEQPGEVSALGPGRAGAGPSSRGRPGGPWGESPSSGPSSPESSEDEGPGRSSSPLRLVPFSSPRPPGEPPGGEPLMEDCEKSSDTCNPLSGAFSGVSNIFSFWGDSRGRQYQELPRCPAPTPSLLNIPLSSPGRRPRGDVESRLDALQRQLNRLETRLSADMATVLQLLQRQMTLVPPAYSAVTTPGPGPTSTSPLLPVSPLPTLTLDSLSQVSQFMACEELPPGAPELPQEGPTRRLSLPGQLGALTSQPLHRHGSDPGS
Procedure: Currents were recorded via single cell patch clamp.

[1] = Efficacy studies in mice (mouse thigh studies); assay type: in vivo; settings: mouse thigh studies with SPR741 and rifampin
Procedure: A 70 kg human weight was used in all models.
Pharmacologic HED was then calculated using the equation below: […]

[2] = GLP 14 day repeat dose study in rats, toxicology; settings: rat
Procedure: Parameters assessed during the in-life phase of the study included weekly body weights, clinical observations, survival, food consumption, ophthalmology, clinical pathology, and urine and plasma toxicokinetics. At necropsy, gross observations were recorded, organ weights were measured, and specific tissues were collected. Histopathologic assessment was conducted on tissue sections stained with hematoxylin and eosin (H&E).
The use of an escalation phase was due to the acute histamine and/or complement mediated reactions commonly seen in rats with a broad range of polymyxins.
For toxicology assessment, all animals were observed twice daily for mortality and moribundity. Clinical examinations were performed daily, and detailed physical examinations were performed weekly. Ophthalmic examinations were performed during once prior to study initiation and once during the study. Clinical pathology parameters (including Blood Urea Nitrogen and Serum Creatinine) were analyzed for all animals assigned to the scheduled necropsies. Complete necropsies were conducted on all animals, and selected organs were weighed at the scheduled necropsies. […] Gross lesions and infusion sites were examined from all animals in the low-dose group at the primary necropsy. Recovery was assessed in the mid-dose group and the control group following a 28-day non-dosing period. Following the 28-day non-dosing (recovery) period, complete necropsies were conducted on all animals, and selected organs were weighed at the scheduled necropsy. Selected tissues were examined microscopically from all animals.

in vivo [3] = settings: male, mouse, plasma, 10 mg/kg
Procedure: (§1) PK analysis was performed using Phoenix® WinNonlin® Version 6.3 (Pharsight Corp. [Mountain View, Calif.]). […] The standard species body weights were assumed to perform allometric scaling purposes. For scaling, mouse, rat, monkey, and human weight were assumed to be 0.02, 0.25, 5, and 70 kg, respectively. PK data from only male animals were available for scaling.
(§2) A MixRatio (additive and multiplicative) weighting was applied for all PK modeling.
(§3) Single dose simulations were done using the low clearance estimate and high clearance estimate obtained from allometric scaling. […] Day 1 data was unavailable for rat. Only 2-3 measurable time points were used in the mouse PK data.

[4] = Cardiopulmonary safety pharmacology study in monkeys; settings: for Body Temperature / Heart Rate / Mean Arterial Blood Pressure / QTc Interval / Respiratory Rate: monkey, in vivo
Procedure: The monkeys in the study were telemeterized prior to study start. Data was collected in one minute intervals over a 24 hour period. The data was reported in 15 minute intervals over the first three hours.

in vivo [5] = settings: male, monkey, plasma, 20 mg/kg
Procedure: as §1, §2, §3

[6] = GLP 14 day repeat dose toxicology study in monkeys incl. CNS assessment; settings: cynomolgus monkey, in vivo
Procedure: Histopathologic assessment was conducted on tissue sections stained with hematoxylin and eosin (H&E).
The neurological assessment was performed on study day 9 or 10 and compared to both pre-test data (study day −6 or −7) as well as the vehicle control.

[7] = rat, following 14 days of repeated dosing
in vivo [8] = settings: Sprague-Dawley, rat, plasma, iv, 1-hour IV infusion twice daily; for AUC(0-t): AUC(0-24)
in vivo [9] = settings: male, rat, plasma, 10 mg/kg
Procedure: as §1, §2, §3

[10] = human, fixed exponent, monkey PK data
[11] = human, fixed exponent, mouse PK data
[12] = human, fixed exponent, rat PK data
[13] = human, floating exponent, mouse, rat and monkey PK data
[14] = human, floating exponent, rat and monkey PK data
[15] = 5 mg/kg/day, 5 mg/kg/day, study day 1
[16] = 5 mg/kg/day, 5 mg/kg/day, study day 14
[17] = 10 mg/kg/day, 10 mg/kg/day, study day 1
[18] = 10 mg/kg/day, 10 mg/kg/day, study day 14
[19] = 15 mg/kg/day, 15 mg/kg/day, study day 1
[20] = 15 mg/kg/day, 15 mg/kg/day, study day 14

Compound: COc1cc(N)c(Cl)cc1C(=O)NC1CCN(CCCOc2ccc(F)cc2)CC1OC (stereo not shown) [Cisapride, reference compound]
- inhibition at 0.047 μg/mL (hERG potassium channel; human): 79.8%

Compound: CC(=O)N[C@H](C(=O)N[C@H](CO)C(=O)N[C@H]1CCNC(=O)[C@H]([C@@H](C)O)NC(=O)[C@H](CCN)NC(=O)[C@H](CCN)NC(=O)[C@H](CC(C)C)NC(=O)[C@@H](Cc2ccccc2)NC(=O)[C@H](CCN)NC1=O)[C@@H](C)O [SPR741, Acetyl-Thr-dSer-cy[Dab-Dab-dPhe-Leu-Dab-Dab-Thr]] (Ac-T[dS][Dab][Dab][dF]L[Dab][Dab]T; lactam 3-C)
- AUC value of efficacy data [1]: 60 µg·h/mL
- Tolerability ([2]; dose levels higher than 5 mg/kg): exhibited toxicity
- Tolerability ([2]; in vivo, 5 mg/kg): well tolerated
- % BUN increase relative to control (mg/dL) ([2]; in vivo, 10 mg/kg/day): 34%
- % BUN increase relative to control (mg/dL) ([2]; in vivo, 15 mg/kg/day): 59%
- % Control CRN ([2]; in vivo, 15 mg/kg/day): 59%
- Vd (in vivo [3]): 0.179 L/kg
- clearance (in vivo [3]): 7.37 mL/min/kg
- Body Temperature ([4]; 5 mg/kg): 38.3 °C
- Heart Rate ([4]; 5 mg/kg): 142 bpm
- Mean Arterial Blood Pressure ([4]; 5 mg/kg): 105 mm Hg
- QTc Interval ([4]; 5 mg/kg): 220 ms
- Respiratory Rate ([4]; 5 mg/kg): 27
- Body Temperature ([4]; 10 mg/kg): 38.3 °C
- Heart Rate ([4]; 10 mg/kg): 141 bpm
- Mean Arterial Blood Pressure ([4]; 10 mg/kg): 104 mm Hg
- QTc Interval ([4]; 10 mg/kg): 222 ms
- Respiratory Rate ([4]; 10 mg/kg): 25
- Body Temperature ([4]; 20 mg/kg): 38.7 °C
- Heart Rate ([4]; 20 mg/kg): 145 bpm
- Mean Arterial Blood Pressure ([4]; 20 mg/kg): 97 mm Hg
- QTc Interval ([4]; 20 mg/kg): 220 ms
- Respiratory Rate ([4]; 20 mg/kg): 26
- SPR741-related clinical signs or changes in body weight, body temperature, blood pressures, heart rate, ECG intervals, respiratory rate, tidal volume, minute volume ([4]; monkeys, cardiopulmonary study): no SPR741-related clinical signs
- Vd (in vivo [5]): 0.238 L/kg
- clearance (in vivo [5]): 2.28 mL/min/kg
- CL (human 70 kg, fixed exponent, monkey PK data): 70.8 mg/h/kg
- CL (human 70 kg, fixed exponent, mouse PK data): 57.5 mg/h/kg
- CL (human 70 kg, fixed exponent, rat PK data): 103 mg/h/kg
- CL [10]: 1.18 mL/min/kg
- T1/2 [10]: 2.33 h
- CL [11]: 0.958 mL/min/kg
- T1/2 [11]: 2.16 h
- Vd [11]: 0.179 L/kg
- CL [12]: 1.72 mL/min/kg
- T1/2 [12]: 2.31 h
- Vd [12]: 0.345 L/kg
- CL [13]: 1.5 mL/min/kg
- T1/2 [13]: 2.44 h
- Vd [13]: 0.315 L/kg
- CL [14]: 0.847 mL/min/kg
- T1/2 [14]: 2.34 h
- Vd [14]: 0.172 L/kg
- NOAEL at 14 days ([6]; both): 40 mg/kg/day
- Reversibility of nephrotoxicity [6]: fully reversible
- Systemic exposure versus dose [7]: dose dependent proportional systemic exposure
- AUC(0-t) (in vivo [8]; [15]): 8200 ng·h/mL
- AUC(0-t) (in vivo [8]; [16]): 8300 ng·h/mL
- Cmax (in vivo [8]; [15]): 3400 ng/mL
- Cmax (in vivo [8]; [16]): 3300 ng/mL
- AUC(0-t) (in vivo [8]; [17]): 25000 ng·h/mL
- AUC(0-t) (in vivo [8]; [18]): 20300 ng·h/mL
- Cmax (in vivo [8]; [17]): 9500 ng/mL
- Cmax (in vivo [8]; [18]): 6700 ng/mL
- AUC(0-t) (in vivo [8]; [19]): 47400 ng·h/mL
- AUC(0-t) (in vivo [8]; [20]): 32900 ng·h/mL
- Cmax (in vivo [8]; [19]): 14900 ng/mL
- Cmax (in vivo [8]; [20]): 10800 ng/mL
- Vd (in vivo [9]): 0.345 L/kg
- clearance (in vivo [9]): 7.05 mL/min/kg
- IC50 (hERG potassium channel): could not be calculated
- Change in mean hERG-mediated potassium currents (hERG potassium channel; concentrations up to 300 μg/mL): no meaningful change
- inhibition at 10 μg/mL (hERG potassium channel; human): 0.08%
- inhibition at 30 μg/mL (hERG potassium channel; human): -0.09%
- inhibition at 100 μg/mL (hERG potassium channel; human): 1.62%
- inhibition at 300 μg/mL (hERG potassium channel; human): 3.87%
